Measured values reported in patent US12390437B2, “Itaconic acid derivatives and uses thereof intreating an inflammatory disease or a disease associated with an undesirable immune response” (Sitryx Therapeutics Limited, priority 2019, dated 2025).
Structures can show the parent of a compound that is named as a salt. Where two headings read alike, the source gives them in different places.

Columns and labels:
[1] = system: IL-1β cytokine output from THP-1s; experiment: THP-1 AlphaLISA IL-1β cytokine assay; assay type: cell-based, human; details: Homo sapiens, read-out: IL-1β (IC50)
Method in brief: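 PMA-differentiated THP-1 cells (72 h) were pre-incubated 30 min with compound, then LPS-primed 24 h and pulsed with nigericin for 1 h at 37 °C. Supernatant cytokine was quantified by AlphaLISA; % inhibition was normalised to +/−LPS plate controls and IC50 taken from concentration-response curves.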

NRF2 = NRF2 +/-GSH activation assay (DiscoverX PathHunter NRF2 translocation kit, U2OS cells); assay type: cell-based; details: Homo sapiens
Method in brief: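 Percent activation, normalised to dimethyl fumarate (high) and vehicle (low) controls, was fitted for EC50 after 6 hours treatment of U2OS PathHunter cells. In the +GSH arm compounds were first pre-incubated 30 minutes in 6 mM working GSH; NRF2 translocation read by chemiluminescent complementation.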

[2] = Hepatocyte stability assay (mouse); assay type: in vitro ADME; details: cryopreserved hepatocytes, 10 μM compound, 0.5×10^6 cells/mL, 60 minutes, read-out: T½
Text: (§1) Defrosted cryo-preserved hepatocytes (viability >70%) are used to determine the metabolic stability of a compound via calculation of intrinsic clearance (Clint; a measure of the removal of a compound from the liver in the absence of blood flow and cell binding). Clearance data are particularly important for in vitro work as they can be used in combination with in vivo data to predict the half-life and oral bioavailability of a drug.
(§2) The metabolic stability in hepatocytes assay involves a time-dependent reaction using both positive and negative controls. The cells must be pre-incubated at 37° C. then spiked with test compound (and positive control); samples taken at pre-determined time intervals are analysed to monitor the change in concentration of the initial drug compound over 60 minutes. A buffer incubation reaction (with no hepatocytes present) acts as a negative control and two cocktail solutions, containing compounds with known high and low clearance values (verapamil/7-hydroxycoumarin and propranolol/diltiazem), act as positive controls. • 1. The assay is run with a cell concentration of 0.5×10^6 cells/mL in Leibovitz buffer. • 2. All compounds and controls are run in duplicate. • 3. Compound concentration is 10 μM. • 4. All compounds and controls are incubated with both cells and buffer to show turnover is due to hepatic metabolism. • 5. All wells on the incubation plate will have 326.7 μL of either cells or buffer added. • 6. Prior to assay, cell and buffer-only incubation plates are preincubated for 10 mins at 37° C. • 7. The assay is initiated by adding compounds, 3.3 μL of 1 mM in 10% DMSO-90% Buffer; final DMSO concentration is 0.1%. • 8. Samples are taken at regular timepoints (0, 5, 10, 20, 40, 60 min) until 60 mins. • 9. Sample volume is 40 μL and it is added to 160 μL of crash solvent (acetonitrile with internal standard) and stored on ice. • 10. At the end of the assay, the crash plates are centrifuged at 3500 rpm for 20 mins at 4° C. • 11. 80 μL of clear supernatant is removed and mixed with 80 μL of deionised water before being analysed by LC-MS/MS.
(§3) Raw LC-MS/MS data are exported to, and analysed in, Microsoft Excel for determination of intrinsic clearance. The percentage remaining of a compound is monitored using the peak area of the initial concentration as 100%. Intrinsic clearance and half-life values are calculated using a graph of the natural log of percentage remaining versus the time of reaction in minutes. Half-life (min) and intrinsic clearance (Clint in μL min^−1 10^−6 cells) values are calculated using the gradient of the graph (the elimination rate constant, k) and Equations 1 and 2.

hepatocytes = experiment: Hepatocyte stability assay (mouse); assay type: in vitro ADME; details: 10 μM compound, 0.5×10^6 cells/mL, 60 minutes
Text: as §1, §2, §3

[3] = THP-1, PMA-differentiated THP-1 cells, LPS 24 hr then Nigericin 1 hour
[4] = U2OS, normalised to dimethyl fumarate 'High' control, GSH condition not stated in Table 5, read-out: NRF2 activation Emax
[5] = U2OS PathHunter cells, 6 hours, GSH condition not stated in Table 5, read-out: NRF2 activation EC50
[6] = THP-1, Table 10, assay of Biological Example 1 (THP-1)
[7] = U2OS, Table 10, assay of Biological Example 5 (NRF2), read-out: EC50
[8] = U2OS, Table 10, assay of Biological Example 5 (NRF2), read-out: Emax

Compound | IC50 [1, 3] [µM] | EC50 (NRF2; [5]) [µM] | half-life at 10 μM [2] [min] | CIint (μL min^−1 10^−6 cells) (hepatocytes) | IC50 [1, 6] [µM] | EC50 (NRF2; [7]) [µM] | Emax (NRF2; [4]) [%] | Emax (NRF2; [8]) [%]
C=C(CC(=O)OCCCCCCCC)C(=O)OCCN1C(=O)CCC1=O [Example 9, 1-(2-(2,5-dioxopyrrolidin-1-yl)ethyl) 4-octyl 2-methylenesuccinate] | 4.7 | – | – | – | – | – | – | –
C=C(CC(=O)OC1CCCCCCC1)C(=O)OCCC(=O)O [Example 82, 3-((4-(cyclooctyloxy)-2-methylene-4-oxobutanoyl)oxy)propanoic acid] | 25.7 | 26.5 | 27 | 52 | – | – | 164 | –
C=C(CC(=O)OC)C(=O)OC [dimethyl itaconate, reference compound] | > 100 | 21.4 | – | – | > 100 | 21.4 | 137 | 137
COC(=O)/C=C/C(=O)OC [dimethyl fumarate, reference compound] | 14.4 | 5.6 | – | – | 14.4 | 5.6 | 102 | 102
C=C(CC(=O)OC1C(C)(C)CC1(C)C)C(=O)OCC(=O)O [Example 169, 2-((2-methylene-4-oxo-4-(2,2,4,4-tetramethylcyclobutoxy)butanoyl)oxy) acetic acid] | 15.6 | – | 34 | 38 | – | – | – | –
C=C(CC(=O)OC1CCCCC1)C(=O)OCCC(=O)O [Example 87, 3-((4-(cyclohexyloxy)-2-methylene-4-oxobutanoyl)oxy)propanoic acid] | 28.1 | 34.2 | 65 | 21 | – | – | 113 | –
C=C(CC(=O)OC1CCCCC1)C(=O)OCc1nnn[nH]1 [Example 125, 1-((2H-tetrazol-5-yl)methyl) 4-cyclohexyl 2-methylenesuccinate] | 17 | 38.3 | 16 | 101 | – | – | 116 | –
C=C(CC(=O)OC1CCCCCCC1)C(=O)OCc1nnn[nH]1 [Example 134, 1-((1H-tetrazol-5-yl)methyl) 4-cyclooctyl 2-methylenesuccinate] | 9.8 | 20 | 7 | 256 | – | – | 183 | –
C=C(CC(=O)OC1CCCCC1)C(=O)OCC(=O)O [Example 91, 2-((4-(cyclohexyloxy)-2-methylene-4-oxobutanoyl)oxy)acetic acid] | 48.1 | 10.1 | 48 | 29 | – | – | 73 | –
C=C(CC(=O)OC1CC2(CCC2)C1)C(=O)OCC(=O)O [Example 96, 2-((2-methylene-4-oxo-4-(spiro[3.3]heptan-2-yloxy)butanoyl)oxy)acetic acid] | 15.7 | 21.2 | 12 | 112 | – | – | 180 | –
C=C(CC(=O)OCCCOc1ccccc1)C(=O)OCCC(=O)O [Example 86, 3-((2-methylene-4-oxo-4-(3-phenoxypropoxy)butanoyl)oxy)propanoic acid] | 100 | 21 | – | – | – | – | 91 | –

Now from value to compound, other results behind:

IC50 [1, 3] [µM] | EC50 (NRF2; [5]) [µM] | half-life at 10 μM [2] [min] | CIint (μL min^−1 10^−6 cells) (hepatocytes) | IC50 [1, 6] [µM] | EC50 (NRF2; [7]) [µM] | Compound | Emax (NRF2; [4]) [%] | Emax (NRF2; [8]) [%]
5 | 5.1 | – | – | – | – | C=C(CC(=O)OCCCCCCCC)C(=O)OCCS(C)(=O)=O [Example 2, 1-(2-(methylsulfonyl)ethyl) 4-octyl 2-methylenesuccinate] | 268 | –
6.1 | 5.5 | 9 | 187 | – | – | C=C(CC(=O)O[C@@H](CCCCCC)C(F)(F)F)C(=O)OCC(=O)O [Example 182, (S)-2-((2-methylene-4-oxo-4-((1,1,1-trifluorooctan-2-yl)oxy)butanoyl)oxy)acetic acid] | 188 | –
17.5 | 22.4 | 13 | 198 | – | – | C=C(CC(=O)O[C@@H](C)CCCCCC)C(=O)OCC(=O)O [Example 89, (S)-2-((2-methylene-4-(octan-2-yloxy)-4-oxobutanoyl)oxy)acetic acid] | 238 | –
24.6 | 14.3 | – | – | – | – | C=C(CC(=O)O[C@H](CC)CCCCC)C(=O)OCC(=O)O [Example 178, (R)-2-(2-methylene-4-(octan-3-yloxy)-4-oxobutanoyloxy)acetic acid] | 188 | –
14.3 | 6.3 | 6 | 220 | – | – | C=C(CC(=O)O[C@@H](C)CCCCCC)C(=O)OCCC(=O)O [Example 84, (S)-3-((2-methylene-4-(octan-2-yloxy)-4-oxobutanoyl)oxy)propanoic acid] | 185 | –
5.3 | 22.2 | 23 | 60 | – | – | C=C(CC(=O)OCCCCCC)C(=O)OCC(=O)O [Example 94, 2-((4-(hexyloxy)-2-methylene-4-oxobutanoyl)oxy)acetic acid] | 193 | –
2 | 4.9 | 5 | 259 | – | – | C=C(CC(=O)O[C@@H](C)CCCCCC)C(=O)OCc1nn[nH]n1 [Example 164, (S)-1-(2H-tetrazol-5-yl)methyl 4-octan-2-yl 2-methylenesuccinate] | 168 | –
14.6 | 8.9 | 13 | 255 | 14.6 | 8.9 | C=C(CC(=O)O[C@H](C)CCCCCC)C(=O)OCC(=O)O [Example 112, (R)-2-((2-methylene-4-(octan-2-yloxy)-4-oxobutanoyl)oxy)acetic acid] | 173 | 173
9.3 | 8.3 | – | – | – | – | C=C(CC(=O)OCCCCCCCC)C(=O)OC1COC1 [Example 4, 4-octyl 1-(oxetan-3-yl) 2-methylenesuccinate] | 181 | –
14.7 | – | 20 | 64 | – | – | C=C(CC(=O)O[C@@H](CC)CCCCC)C(=O)OCC(=O)O [Example 170, (S)-2-(2-methylene-4-(octan-3-yloxy)-4-oxobutanoyloxy)acetic acid] | – | –
6.8 | 5 | < 3 | >460 | – | – | C=C(CC(=O)O[C@H](C)CCCCCC)C(=O)OCc1nn[nH]n1 [Example 161, (R)-1-((2H-tetrazol-5-yl)methyl) 4-(octan-2-yl) 2-methylenesuccinate] | 146 | –
17.6 | – | 22 | 79 | – | – | C=C(CC(=O)OC(C)(C)CCCCC)C(=O)OCC(=O)O [Example 193, 2-((2-methylene-4-((2-methylheptan-2-yl)oxy)-4-oxobutanoyl)oxy)acetic acid] | – | –
9.3 | 8.8 | – | – | – | – | C=C(CC(=O)OCCCCCCCC)C(=O)OCCC#N [Example 1, 1-(2-cyanoethyl) 4-octyl 2-methylenesuccinate] | 134 | –
15.6 | – | – | – | – | – | C=C(CC(=O)OCCCCCCCC)C(=O)OCCC(F)(F)F [Example 3, 4-octyl 1-(3,3,3-trifluoropropyl) 2-methylenesuccinate] | – | –
